The values below come from US10065990B2, “Cyclic peptide compound, and preparation method, pharmaceutical composition and use thereof” (HANGZHOU GUANYU BIO-MEDICAL CO., LTD, priority 2013, dated 2018).

One may read the GI50 as the concentration giving 50% growth inhibition.

Molecules are shown by their SMILES. Where two headings read alike, the source gives them in different places.

Test [1] concerns the target T1, HDAC7 (Homo sapiens, UniProt Q8WUI4).
T1 sequence (Q8WUI4 1-952): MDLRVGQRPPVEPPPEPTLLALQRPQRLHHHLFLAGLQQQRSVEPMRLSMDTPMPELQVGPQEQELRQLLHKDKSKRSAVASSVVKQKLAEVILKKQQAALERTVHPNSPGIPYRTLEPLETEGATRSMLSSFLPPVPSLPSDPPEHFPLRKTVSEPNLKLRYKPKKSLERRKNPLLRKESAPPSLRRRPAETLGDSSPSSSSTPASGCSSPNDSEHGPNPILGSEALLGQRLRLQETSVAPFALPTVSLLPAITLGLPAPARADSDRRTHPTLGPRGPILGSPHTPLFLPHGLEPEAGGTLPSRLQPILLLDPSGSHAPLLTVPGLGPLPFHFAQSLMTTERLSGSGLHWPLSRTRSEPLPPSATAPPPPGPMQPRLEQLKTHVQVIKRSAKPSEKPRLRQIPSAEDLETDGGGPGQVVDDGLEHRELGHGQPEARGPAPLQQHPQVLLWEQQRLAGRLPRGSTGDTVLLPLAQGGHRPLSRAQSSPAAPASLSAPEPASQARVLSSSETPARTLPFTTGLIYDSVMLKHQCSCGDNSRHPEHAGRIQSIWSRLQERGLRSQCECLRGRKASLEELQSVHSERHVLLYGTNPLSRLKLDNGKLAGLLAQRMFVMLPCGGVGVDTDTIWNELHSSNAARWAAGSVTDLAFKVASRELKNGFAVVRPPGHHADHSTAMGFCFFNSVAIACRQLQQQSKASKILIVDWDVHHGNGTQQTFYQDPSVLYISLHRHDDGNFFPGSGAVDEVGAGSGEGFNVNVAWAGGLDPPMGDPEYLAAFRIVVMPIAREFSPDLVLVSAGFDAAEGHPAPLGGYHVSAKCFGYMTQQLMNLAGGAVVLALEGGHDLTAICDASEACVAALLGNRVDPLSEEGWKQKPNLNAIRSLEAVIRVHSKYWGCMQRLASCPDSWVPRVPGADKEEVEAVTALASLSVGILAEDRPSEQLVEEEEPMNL
Put plainly: HDAC biochemical activity measurement (fluorescent substrate deacetylation).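 Further: fluorogenic deacetylation assay using acetyl-lysine substrate at 20 µM, enzyme and compound incubated 30 min at 37 °C, then developer added, fluorescence read at 360/460 nm.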 The conditions noted are these: HDAC7; 37° C. 30 minutes.

Test [2] has as its system A549 (human lung cancer cells). Put plainly: MTT cancer cell growth inhibition. The test is classed as cell-based. The conditions noted are these: Homo sapiens, A549, 72 h, MTT, 72 hours incubation, read-out: GI50 A54. In outline: (§1)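 GI50 values come from MTT viability: after 72 h compound exposure (final 10^−5–10^−10 M, three wells each) of cells plated overnight at 1500/well in 10% FBS medium, MTT was given for 4 h. The DMSO-solubilised formazan was then measured at 570 nm.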

Test [3] has as its system BGC-823 (human gastric cancer cells). In words: MTT cancer cell growth inhibition. The test is classed as cell-based. The note with it: Homo sapiens, BGC-823, 72 h, MTT, 72 hours incubation, read-out: GI50 BG. In outline:
as §1

The test system of test [4] is Bel-7402 (human hepatoma cells). In words: MTT cancer cell growth inhibition. The test is classed as cell-based. The note with it: Homo sapiens, Bel-7402, 72 h, MTT, 72 hours incubation, Bel-7402 cells; read-out: GI50 Bel-7402. In outline:
as §1

Test [5] concerns DU145 (human prostate cancer cells). Put plainly: MTT cancer cell growth inhibition. The test is classed as cell-based. The conditions noted are these: Homo sapiens, DU-145, 72 h, MTT, 72 hours incubation, read-out: GI50 Du1. In outline:
as §1

Test [6] relates to H1975 (non-small cell lung adenocarcinoma). Put plainly: MTT cancer cell growth inhibition. The test is classed as cell-based. The conditions noted are these: Homo sapiens, NCI-H1975, 72 h, MTT, 72 hours incubation, H1975 cells; read-out: GI50 H1975. The method, boiled down:
as §1

The test system of test [7] is HCC827 (human non-small cell lung cancer cells). In words: MTT cancer cell growth inhibition. The test is classed as cell-based. The note with it: Homo sapiens, HCC827, 72 h, MTT, 72 hours incubation, HCC827 cells; read-out: GI50 HCC827. The method, boiled down: as §1
Test [8] deals with HT1080 (human fibrosarcoma cells). In words: MTT cancer cell growth inhibition. The test is classed as cell-based. The note with it: Homo sapiens, HT-1080, 72 h, MTT, 72 hours incubation, read-out: GI50 HT1. The method, boiled down: as §1
Test [9] relates to Hela (human cervical cancer cells). In words: MTT cancer cell growth inhibition. The test is classed as cell-based. The conditions noted are these: Homo sapiens, HeLa, 72 h, MTT, 72 hours incubation, read-out: GI50 Hela. The method, boiled down: as §1
The subject of test [10] is Huh-7 (human hepatoma cells). Put plainly: MTT cancer cell growth inhibition. The test is classed as cell-based. The note with it: Homo sapiens, Huh-7, 72 h, MTT, 72 hours incubation, Huh-7 cells; read-out: GI50 Huh-7. The method, boiled down: as §1
The test system of test [11] is K562 (human leukemia cells). In words: MTT cancer cell growth inhibition. The conditions noted are these: Homo sapiens, K562, 72 h, MTT, 72 hours incubation, K562 cells; read-out: GI50 K562. The test is classed as cell-based. The method, boiled down:
as §1

The subject of test [12] is KBM-5 (human chronic myelogenous leukemia). In words: MTT cancer cell growth inhibition. The test is classed as cell-based. The note with it: Homo sapiens, KBM5, 72 h, MTT, 72 hours incubation, KBM-5 cells; read-out: GI50 KBM-5. In outline: as §1
Test [13] relates to KBM5-T315I (human chronic myelogenous leukemia). In words: MTT cancer cell growth inhibition. The test is classed as cell-based. The conditions noted are these: Homo sapiens, 72 h, MTT, 72 hours incubation, KBM5-T315I cells; read-out: GI50 KBM5-T315I. The method, boiled down: as §1
Test [14] has as its system MCF-7 (human breast cancer cells). Put plainly: MTT cancer cell growth inhibition. The test is classed as cell-based. The note with it: Homo sapiens, MCF7, 72 h, 72 hours incubation, read-out: GI50 MCF. In outline: as §1
The test system of test [15] is MDA-MB-231 (breast cancer cells). In words: MTT cancer cell growth inhibition. The test is classed as cell-based. The note with it: Homo sapiens, MDA-MB-231, 72 h, read-out: GI50 MDA-MB-231, MTT, 72 hours incubation, MDA-MB-231 cells. The method, boiled down:
as §1

Test [16] relates to MOLT-4 (human acute lymphoblastic leukemia cells). In words: MTT cancer cell growth inhibition. The test is classed as cell-based. The conditions noted are these: Homo sapiens, MOLT-4, 72 h, MTT, 72 hours incubation, read-out: GI50 Mol. In outline: as §1
Test [17] concerns N-87 (human gastric cancer cells). Put plainly: MTT cancer cell growth inhibition. The test is classed as cell-based. The note with it: Homo sapiens, 72 h, MTT, 72 hours incubation, N-87 cells; read-out: GI50 N-87. In outline:
as §1

Test [18] relates to PANC-1 (Pac-1, human pancreatic cancer cells). Put plainly: MTT cancer cell growth inhibition. The test is classed as cell-based. The conditions noted are these: Homo sapiens, PANC-1, 72 h, MTT, 72 hours incubation, read-out: GI50 PAN. The method, boiled down: as §1
Test [19] has as its system SGC-7901 (human gastric cancer cells). In words: MTT cancer cell growth inhibition. The conditions noted are these: Homo sapiens, SGC-7901, 72 h, MTT, 72 hours incubation, SGC-7901 cells; read-out: GI50 SGC-7901. The test is classed as cell-based. The method, boiled down: as §1
The test system of test [20] is U937 (human leukemia cells). In words: MTT cancer cell growth inhibition. The test is classed as cell-based. The note with it: Homo sapiens, U-937, 72 h, MTT, 72 hours incubation, read-out: GI50 U93. In outline: as §1
In test [21] the test system is lncap (prostate cancer cells). Put plainly: MTT cancer cell growth inhibition. The test is classed as cell-based. The note with it: Homo sapiens, LNCaP, 72 h, MTT, 72 hours incubation, read-out: GI50 lnca. In outline:
as §1

Take `C/C=C1\NC(=O)c2ccc(F)c(n2)CNC(=O)C[C@@H](/C=C/CCSC(=O)CCCCC)OC(=O)[C@H](C(C)C)NC1=O` [Example 38]: in test [1], the “IC50 HDAC7” value is reported as “no activity”. The GI50 worked out at 30 nM in test [2]; 40 nM in test [3]; 84 nM in test [4]; 30 nM in test [5]; 34 nM in test [6]; 84 nM in test [7]. Moreover, the GI50 in [8] is 80 nM; in test [9] it was 70 nM; in [10] it was 33 nM; in test [11] it was 39 nM; in test [12], 77 nM; in [13], 64 nM. Also, the GI50 amounted to 60 nM in [14]; 33 nM in [15]; 30 nM in test [16]; 49 nM in test [17]; 80 nM in [18]; 34 nM in [19]. The GI50 in test [20] and in [21] was 30 nM in each case.
For `CC(C)=C1NC(=O)c2cc(F)cc(n2)CNC(=O)C[C@@H](/C=C/CCS)OC(=O)[C@H](C(C)C)NC1=O` [Compound 137], the “IC50 HDAC7” value in [1] is recorded as “no activity”. The GI50 in test [2] is 20 nM; in test [3] it was 30 nM; in [4], 16 nM; in test [5] it was 30 nM; in [6], 53 nM; in test [7], 49 nM. In addition, the GI50 in test [8] stood at 80 nM; in test [9] it was 70 nM; in test [10], 43 nM; in [11], 35 nM; in [12] it was 48 nM; in [13], 26 nM. Moreover, the GI50 in test [14] was found to be 30 nM; in test [15] it was 45 nM; in test [16] it was 40 nM; in test [17] it was 29 nM; in test [18], 80 nM; in [19], 81 nM. For the same molecule, the GI50 in test [20] was 30 nM; in test [21], 20 nM.
On to `C/C=C1\NC(=O)c2nc(cc(SC)n2)CNC(=O)C[C@@H](/C=C/CCSC(C)=O)OC(=O)[C@H](C)NC1=O` [Compound 218], for which the “IC50 HDAC7” value in test [1] is listed as “no activity”. Moreover, the GI50 in test [2] (A549 cells) was determined as 30 nM; in test [3] (BGC-823 cells), 60 nM; in test [4], 62 nM; in test [5] (DU145 cells) it was 50 nM; in test [6], 38 nM; in [7], 37 nM. Moreover, the GI50 in test [8] (HT1080 cells) amounted to 20 nM; in test [9] (Hela cells), 80 nM; in [10] it was 21 nM; in test [11], 36 nM; in test [12], 21 nM; in [13] it was 43 nM. Also, the GI50 in test [14] (MCF-7 cells) is 40 nM; in test [15], 27 nM; in test [16] (MOLT-4 cells), 90 nM; in test [17], 65 nM; in test [18] (PANC-1 cells), 50 nM; in test [19], 53 nM. Also, the figures for the GI50 in test [20] (U937 cells) and in test [21] (lncap cells) were 60 nM and 50 nM, respectively.
With `C=C1NC(=O)c2cc(F)cc(n2)CNC(=O)C[C@@H](/C=C/CCSC(C)=O)OC(=O)[C@H](C(C)C)NC1=O` [Compound 85], in [1], the “IC50 HDAC7” value was “no activity”. In addition, the GI50 in test [2] stood at 10 nM; in test [3] it was 20 nM; in test [4], 49 nM; in [5] it was 20 nM; in test [6], 61 nM; in test [7], 49 nM. Further, the GI50 in test [8] turned out to be 40 nM; in test [9], 50 nM; in test [10], 39 nM; in test [11], 26 nM; in test [12], 53 nM; in test [13], 25 nM. For the same molecule, the GI50 amounted to 20 nM in [14]; 39 nM in test [15]; 30 nM in test [16]; 27 nM in test [17]; 40 nM in [18]; 15 nM in test [19]. Further, the GI50 in [20] was 60 nM; in [21] it was 30 nM.
